# Tests used:
# Escherichia coli [1] = assay: Antibacterial activity against Escherichia coli JW5503 harboring tolC mutant assessed as inhibition of bacterial growth incubated for 16 to 20 hrs by two-fold serial dilution assay; type: functional; conditions: time 16-20 hrs
# Staphylococcus aureus [2] = assay: Antibacterial activity against Staphylococcus aureus assessed as inhibition of bacterial growth; type: functional, organism-based
# Staphylococcus aureus [3] = assay: Antibacterial activity against Staphylococcus aureus assessed as inhibition of bacterial growth by broth microdilution method; type: functional
# Escherichia coli [4] = assay: Antibacterial activity against Escherichia coli assessed as inhibition of bacterial growth by broth microdilution method; type: functional
# Pseudomonas aeruginosa [5] = assay: Antibacterial activity against Pseudomonas aeruginosa assessed as inhibition of bacterial growth by broth microdilution method; type: functional
# Klebsiella pneumoniae [6] = assay: Antibacterial activity against Klebsiella pneumoniae assessed as inhibition of bacterial growth by broth microdilution method; type: functional
# Escherichia coli [7] = assay: Antibacterial activity against Escherichia coli TISTR 780 assessed as inhibition of bacterial growth by two-fold serial dilution method; type: functional
# Staphylococcus aureus [8] = assay: Antibacterial activity against methicillin-resistant Staphylococcus aureus SK1 assessed as inhibition of bacterial growth by two-fold serial dilution method; type: functional
# Staphylococcus aureus [9] = assay: Antibacterial activity against Staphylococcus aureus TISTR 1466 assessed as inhibition of bacterial growth by two-fold serial dilution method; type: functional
# Salmonella typhimurium = assay: Antibacterial activity against Salmonella typhimurium TISTR 292 assessed as inhibition of bacterial growth by two-fold serial dilution method; type: functional, Salmonella enterica subsp. enterica serovar Typhimurium; conditions: Salmonella enterica
# [10] = Antimicrobial activity against Pseudomonas syringae pv. actinidiae by turbidimetric analysis; type: functional
# Xanthomonas axonopodis = assay: Antimicrobial activity against Xanthomonas axonopodis by turbidimetric analysis; type: functional, organism-based
# Xanthomonas oryzae = assay: Antimicrobial activity against Xanthomonas oryzae by turbidimetric analysis; type: functional, organism-based
# Candida albicans [11] = assay: Antimicrobial activity against Candida albicans NRRL Y-477 assessed as inhibition of microbial growth incubated for 48 hrs by two-fold serial dilution assay; type: functional
# Pseudomonas aeruginosa [12] = assay: Antimicrobial activity against Pseudomonas aeruginosa ATCC 27953 assessed as inhibition of microbial growth incubated for 24 hrs by two-fold serial dilution assay; type: functional
# Priestia megaterium = assay: Antimicrobial activity against Bacillus megaterium ATCC 9885 assessed as inhibition of microbial growth incubated for 24 hrs by two-fold serial dilution assay; type: functional
# Escherichia coli [13] = assay: Antimicrobial activity against Escherichia coli ATCC 25922 assessed as inhibition of microbial growth incubated for 24 hrs by two-fold serial dilution assay; type: functional
# Staphylococcus aureus [14] = assay: Antimicrobial activity against Staphylococcus aureus ATCC 29213 assessed as inhibition of microbial growth incubated for 24 hrs by two-fold serial dilution assay; type: functional
# Bacillus subtilis [15] = assay: Antimicrobial activity against Bacillus subtilis ATCC 6633 assessed as inhibition of microbial growth incubated for 24 hrs by two-fold serial dilution assay; type: functional
# Klebsiella pneumoniae [16] = assay: Antimicrobial activity against Klebsiella pneumoniae ATCC 13883 assessed as inhibition of microbial growth incubated for 24 hrs by two-fold serial dilution assay; type: functional
# Micrococcus luteus = assay: Antimicrobial activity against Sarcina lutea assessed as inhibition of microbial growth incubated for 24 hrs by two-fold serial dilution assay; type: functional
# Candida albicans [17] = assay: Antifungal activity against Candida albicans assessed as inhibition of fungal growth incubated for overnight by MTT based serial dilution method; type: functional
# Aspergillus fumigatus = assay: Antifungal activity against Aspergillus fumigatus assessed as inhibition of fungal growth incubated for overnight by MTT based serial dilution method; type: functional
# Candida tropicalis = assay: Antifungal activity against Candida tropicalis assessed as inhibition of fungal growth incubated for overnight by MTT based serial dilution method; type: functional
# Pasteurella multocida = assay: Antibacterial activity against Pasteurella multocida assessed as inhibition of bacterial growth by agar well diffusion method; type: functional
# Rhodotorula glutinis = assay: Antifungal activity against Rhodotorula glutinis DSM 10134 assessed as inhibition of fungal growth incubated for 24 hrs by serial dilution method; type: functional
# Bacillus subtilis [18] = assay: Antibacterial activity against Bacillus subtilis DSM 10 assessed as inhibition of bacterial growth incubated for 24 hrs by serial dilution method; type: functional
# [19] = test system: Schizosaccharomyces pombe; assay: Antifungal activity against Schizosaccharomyces pombe DSM 70572 assessed as inhibition of fungal growth incubated for 24 hrs by serial dilution method; type: functional
# [20] = test system: Mycolicibacterium smegmatis; assay: Antibacterial activity against Mycobacterium smegmatis DSM ATCC 700084 assessed as inhibition of bacterial growth incubated for 24 hrs by serial dilution method; type: functional
# Staphylococcus aureus [21] = assay: Antibacterial activity against Staphylococcus aureus DSM 346 assessed as inhibition of bacterial growth incubated for 24 hrs by serial dilution method; type: functional
# Mucor hiemalis = assay: Antifungal activity against Mucor hiemalis DSM 2656 assessed as inhibition of fungal growth incubated for 24 hrs by serial dilution method; type: functional
# Proteus vulgaris = assay: Antibacterial activity against Proteus vulgaris assessed as zone of inhibition at 25 ug/ml; type: functional; conditions: read-out: IZ
# [22] = test system: Staphylococcus epidermidis; assay: Antibacterial activity against Staphylococcus epidermidis assessed as zone of inhibition at 25 ug/ml; type: functional; conditions: read-out: IZ
# Escherichia coli [23] = assay: Antibacterial activity against Escherichia coli assessed as zone of inhibition at 25 ug/ml; type: functional; conditions: read-out: IZ
# Vibrio cholerae = assay: Antibacterial activity against Vibrio cholerae assessed as inhibition of bacterial growth incubated for 24 hrs by broth microdilution method; type: functional
# Staphylococcus aureus [24] = assay: Antibacterial activity against Staphylococcus aureus assessed as inhibition of bacterial growth incubated for 24 hrs by broth microdilution method; type: functional
# Shigella flexneri = assay: Antibacterial activity against Shigella flexneri assessed as inhibition of bacterial growth incubated for 24 hrs by broth microdilution method; type: functional
compound,measurement,setting,value
NC1CCCc2c1[nH]c1ccc(Cl)cc21 (stereo not drawn),MIC,Escherichia coli [1],37 µg/mL
COc1cc2[nH]c3c4c(c(C)cc3c2cc1OC)OC(C)(C)C=C4,IC50,Staphylococcus aureus [2],20.9 µM
CC(C)=CCCC1(C)C=Cc2c(c(C)cc3c2[nH]c2cc(O)ccc23)O1 (stereo not drawn),MIC90,Staphylococcus aureus [3],3.12 µg/mL
same,MIC90,Escherichia coli [4],> 100 µg/mL
same,MIC90,Pseudomonas aeruginosa [5],> 100 µg/mL
same,MIC90,Klebsiella pneumoniae [6],3.12 µg/mL
CC1(C)Oc2ccc3[nH]c4cc(O)c(C=O)cc4c3c2[C@@H](O)[C@H]1O,MIC,Escherichia coli [7],64 µg/mL
same,MIC,Staphylococcus aureus [8],64 µg/mL
same,MIC,Staphylococcus aureus [9],64 µg/mL
same,MIC,Salmonella typhimurium,64 µg/mL
O=C(CCn1c2c(c3ccccc31)CCCC2)N1C[C@H]2C[C@H](C1)c1cccc(=O)n1C2,MIC,Escherichia coli [1],42.1 µg/mL
OC(CNCc1cn(-c2ccc(F)cc2)nn1)Cn1c2ccccc2c2ccccc21 (stereo not drawn),EC50,[10],14.2 µg/mL
same,EC50,Xanthomonas axonopodis,2.87 µg/mL
same,EC50,Xanthomonas oryzae,3.36 µg/mL
O=C(NN1C(=O)C(Cl)=C(Cl)C1=O)c1ccc(-n2c3c(c4ccccc42)CCCC3)cc1,MIC,Candida albicans [11],25 µg/mL
same,MIC,Pseudomonas aeruginosa [12],25 µg/mL
same,MIC,Priestia megaterium,25 µg/mL
same,MIC,Escherichia coli [13],25 µg/mL
same,MIC,Staphylococcus aureus [14],25 µg/mL
same,MIC,Bacillus subtilis [15],25 µg/mL
same,MIC,Klebsiella pneumoniae [16],25 µg/mL
same,MIC,Micrococcus luteus,25 µg/mL
O=C1COc2ccccc2N1CC(O)CN1CCN(CC(O)Cn2c3ccccc3c3ccccc32)CC1 (stereo not drawn),EC50,[10],8.5 µg/mL
same,EC50,Xanthomonas axonopodis,4.71 µg/mL
same,EC50,Xanthomonas oryzae,4.95 µg/mL
COCn1c2c(c3cccc(C)c31)Cc1cocc1C2,MIC,Candida albicans [17],7.81 µg/mL
same,MIC,Aspergillus fumigatus,7.81 µg/mL
same,MIC,Candida tropicalis,7.81 µg/mL
C/C(=N/Nc1ccc([N+](=O)[O-])cc1[N+](=O)[O-])C1CCCc2c1n(C)c1c([N+](=O)[O-])cc([N+](=O)[O-])cc21 (stereo not drawn),MIC,Pasteurella multocida,4.5 µg/mL
COCn1c2c(c3cc(F)ccc31)Cc1cocc1C2,MIC,Candida albicans [17],7.81 µg/mL
same,MIC,Aspergillus fumigatus,7.81 µg/mL
same,MIC,Candida tropicalis,7.81 µg/mL
Clc1ccc2[nH]c3c(c2c1)CCCC31CCCn2ccnc21 (stereo not drawn),MIC,Rhodotorula glutinis,53.2 µM
same,MIC,Bacillus subtilis [18],53.2 µM
same,MIC,[19],53.2 µM
same,MIC,[20],53.2 µM
same,MIC,Staphylococcus aureus [21],53.2 µM
same,MIC,Mucor hiemalis,53.2 µM
O=C(NN1C(=O)c2ccccc2C1=O)c1ccc(-n2c3c(c4ccccc42)CCCC3)cc1,MIC,Candida albicans [11],25 µg/mL
same,MIC,Pseudomonas aeruginosa [12],25 µg/mL
same,MIC,Priestia megaterium,25 µg/mL
same,MIC,Escherichia coli [13],25 µg/mL
same,MIC,Staphylococcus aureus [14],25 µg/mL
same,MIC,Bacillus subtilis [15],25 µg/mL
same,MIC,Klebsiella pneumoniae [16],25 µg/mL
same,MIC,Micrococcus luteus,25 µg/mL
COC(=O)c1cc(O)c2[nH]c3ccc4c(c3c2c1)C=CC(C)(C)O4,MIC,Escherichia coli [7],64 µg/mL
same,MIC,Staphylococcus aureus [8],64 µg/mL
same,MIC,Staphylococcus aureus [9],64 µg/mL
same,MIC,Salmonella typhimurium,64 µg/mL
Cc1ccc2[nH]c3c(c2c1)CC/C(=C\c1ccc(Br)cc1)C3=O,zone of inhibition at 25 µg/mL,Proteus vulgaris,15 mm
same,zone of inhibition at 25 µg/mL,[22],15 mm
same,zone of inhibition at 25 µg/mL,Escherichia coli [23],15 mm
COc1cc(C)c(CC=C(C)C)c2c1[nH]c1ccccc12,MIC,Vibrio cholerae,32 µg/mL
same,MIC,Staphylococcus aureus [24],32 µg/mL
same,MIC,Shigella flexneri,32 µg/mL
NCC1CCCc2c1[nH]c1ccc(Cl)cc21 (stereo not drawn),MIC,Escherichia coli [1],21.1 µg/mL
CC(C)=CCc1c(O)ccc2[nH]c3cc(O)c(C=O)cc3c12,MIC,Escherichia coli [7],64 µg/mL
same,MIC,Staphylococcus aureus [8],64 µg/mL
same,MIC,Staphylococcus aureus [9],64 µg/mL
same,MIC,Salmonella typhimurium,64 µg/mL
CC(C)=CCC[C@@]1(C)C=Cc2c(ccc3c2[nH]c2ccc(C=O)cc23)O1,IC50,Staphylococcus aureus [2],11.7 µM
Brc1ccc2[nH]c3c(c2c1)CCCC31CCCn2ccnc21 (stereo not drawn),MIC,Rhodotorula glutinis,66.6 µM
same,MIC,Bacillus subtilis [18],66.6 µM
same,MIC,[19],66.6 µM
same,MIC,[20],66.6 µM
same,MIC,Staphylococcus aureus [21],66.6 µM
same,MIC,Mucor hiemalis,66.6 µM

# From ChEMBL document CHEMBL5532637, “Antimicrobial activity of natural and semi-synthetic carbazole alkaloids” (Eur J Med Chem, 2023)
